Values of other authors in patent publication US12584131B2, “Methods of gene therapy” (OREGON HEALTH & SCIENCE UNIVERSITY, priority 2018, dated 2026).
Where two headings read alike, the source gives them in different places.

System: CYP enzymes
[1] = CYP enzymes that activate the prodrug (protoxin)

SMILES	Metabolizing CYP	Metabolizing CYP (listed as acetaminophen)	Metabolizing CYP [1]
CC(=O)Nc1ccc(O)cc1 [Acetaminophen]	CYP2E1, CYP1A2, CYP3A4, CYP2D6	CYP1A2, CYP2E1, and CYP3A4	
O=P1(N(CCCl)CCCl)NCCCO1 (stereo not drawn) [Cyclophosphamide]	CYP2B6, CYP2C9, CYP3A4		
CN(C)/N=N/c1[nH]cnc1C(N)=O [Dascarbazine]			CYP1A1, CYP1A2, CYP2E1
CC(=O)N1CCN(c2ccc(OCC3COC(Cn4ccnc4)(c4ccc(Cl)cc4Cl)O3)cc2)CC1 (stereo not drawn) [Ketoconazole]			CYP3A4
C/C=C1\C[C@@H](C)[C@@](C)(O)C(=O)OC/C2=C/CN(C)CC[C@@H](OC1=O)C2=O [Senkirkin]			CYP3A4
Nc1c2c(nc3ccccc13)CCCC2 [Tacrine]			CYP1A2
O=c1[nH]c(=O)n(C2CCCO2)cc1F (stereo not drawn) [Tegafur]			CYP2A6, CYP1A2, CYP2C8
COc1cccc(C2(O)CCCCC2CN(C)C)c1 (stereo not drawn) [Tramadol]			CYP2D6
